What is called IC50 is the concentration needed to halve the response being measured.

The structures appear in SMILES notation.

One assay concerns h20S. Particulars: cited from earlier work.
The subject of another assay is T1, human 20S proteasome.
T1 construct: purchased Boston Biochem
The experiment in a line: 20S proteasome chymotryptic-like activity assay (Suc-LLVY-AMC), steady-state kinetics vs Tris-T4 concentration. It is filed as biochemical. An excerpt: In order to better characterize the effect of Tris-T4 on the functional properties of the 20S proteasome, we have carried out an investigation on the steady-state chymotryptic-like activity of h20S as a function of Tris-T4 concentration, employing different substrate concentrations.
(§1) In addition, for the sake of clarity, in Scheme 1 some of these parameters are reported as interaction ratios, namely α = KAU/KAL, β = KBU/KBL, γ = KBU/KAU, and δ = KBL/KAL. Finally, σA and σB refer to the eventual effect of Tris-T4 binding on the catalytic rate-limiting step kcat of either state A and/or state B (see Scheme 1). […] (1) kobscat=kcatA⋅(1+KAL⋅[Tris_T4])^n+LL⋅kcatB⋅(1+KBL⋅[Tris_T4])^n/(1+KAL⋅[Tris_T4])^n+LL⋅(1+KBL⋅[Tris_T4])^n (2) Kobsm=K0m⋅(1+KAU⋅[Tris_T4])^n+LU⋅(1+KBI⋅[Tris_T4])^m⋅(1+KBU⋅[Tris_T4])^n/(1+KAL⋅[Tris_T4])^n+LL⋅(1+KBL⋅[Tris_T4])^n (3) kobscat/Kobsm=kcatA/KmA⋅(1+KAU⋅[Tris_T4])^n+LU⋅kcatB/KmB⋅(1+KBI⋅[Tris_T4])^m⋅(1+KBU⋅[Tris_T4])^n/(1+KAU⋅[Tris_T4])^n+LU⋅(1+KBI⋅[Tris_T4])^m⋅(1+KBU⋅[Tris_T4])^n
(§2) 20S proteasome activity assays were performed in vitro in the assay buffer (i.e., 50 mM TrisHCl, pH 8.0) by mixing 20S proteasome (2 nM) with increasing concentrations (0.1–10 µM) of Tris-T4 incubating for 30 min at 37 °C. Then, varying concentrations (between 5 µM and 100 µM) of fluorogenic peptide were added in a 384 multiwell black plate. A minimum of three replicates were performed for each data point. […] Data relative to CP activities at different substrate concentrations have been analyzed by a double reciprocal Lineweaver–Burk plot, according to the following equation:(4) [E0]/v=Km/±kcatx 1/[S]+1/kcat where (E0) is the enzyme concentration, ν is the observed velocity (expressed as moles of substrate cleaved per time interval unit), (S) is the substrate concentration, Km is the Michaelis–Menten equilibrium constant, referring to the affinity for substrate, and kcat is the velocity of the rate-limiting step. All curve fitting and statistical analysis were carried out using the non-linear fitting tool (NLFit) and MatLab (The Math works Inc., Natick, MA, USA). The parametric data fitting was based on nonlinear regression and the method of least squares. Model discrimination and choice was based on the goodness of fit. The goodness of fit was evaluated by visual examination of the fitted curves, 95% confidence bounds for the fitted coefficients and statistical analysis for determining the square of the multiple correlation coefficient (R^2).The Gibbs free energy difference (ΔG^0 = −RT lnK) was calculated using the values of the equilibrium constants reported in Table 1 and corresponds to −ΔG^0 of the considered conformational transition equilibrium as depicted in Scheme 1.

A further assay has as its system T2, wt y20S proteasome.
T2 construct: Yeast CP 20S wild-type and the mutant form, α3ΔN, were purified as previously reported; made in house; host or cells: yeast
Described as above. The class given is biochemical, yeast.
Source text: (§3) Then, we have extended the investigation on the functional modulation of the chymotryptic-like activity by Tris-T4 porphyrin also to wt y20S proteasome and to its mutant α3ΔN, which is characterized by a significant enhancement of the enzymatic activity, ascribed to disruption of the gate closing mechanism.
as §1, §2

Assay [1] has as its system T3, yeast α3ΔN mutant of 20S proteasome.
T3 construct: Yeast CP 20S wild-type and the mutant form, α3ΔN, were purified as previously reported; made in house; host or cells: yeast
Described as above. It is filed as biochemical.
Source text: as §3, §1, §2

Assay [2] has as its system purified rabbit 20S proteasome. More on the design: method as in PMID 22642538. Particulars: 100 µM fluorogenic substrate; apparent inhibition; read-out: IC50, chymotryptic-like activity; cited from earlier work.
In the next assay the test system is T4, h20S proteasome.
T4 construct: purchased Boston Biochem
The experiment in a line: STD and WaterLOGSY NMR interaction study. Particulars: Tris-T4 175 μM, 20S 860 nM; 50 mM Hepes, 100 mM NaCl, 1mM DTT. The class given is binding, human. The method, then:
For NMR interaction studies, Saturation Transfer Difference (STD) and WaterLogsy (WL) experiments were employed to derive the ligand binding epitope.
As a starting point, the Tris-T4 structure has been analyzed by ^1H NMR spectroscopy in the buffer (50 mM Hepes, 100 mM NaCl and 1mM DTT). The ^1H chemical shift assignments of Tris-T4 are reported in Supplementary Figure S1. Both STD- and WL-NMR spectra of Tris-T4 were acquired in a 200-fold excess over the h20S proteasome.
Then, to identify the ligand moiety more closely interacting with the protein, we evaluated and compared the saturation effects of the individual Tris-T4 proton resonances (ISTD = I0 − Isat). The signal showing the largest ISTD/I0 value, the para phenyl proton, was normalized to 100% (Figure 7). The relative degree of saturation of the individual protons, normalized to that of the para phenyl proton, was then used to compare the STD effect.

[3] abbreviates: Michaelis-Menten constant in state A.
[4] abbreviates: Michaelis-Menten constant in state B (stabilized by Tris-T4).
[5] abbreviates: state A, substrate-bound ES complex.
The mark [6] stands for this setting: state B, substrate-bound ES complex.

T3 sequence (P23639 whole entry, stated change not applied): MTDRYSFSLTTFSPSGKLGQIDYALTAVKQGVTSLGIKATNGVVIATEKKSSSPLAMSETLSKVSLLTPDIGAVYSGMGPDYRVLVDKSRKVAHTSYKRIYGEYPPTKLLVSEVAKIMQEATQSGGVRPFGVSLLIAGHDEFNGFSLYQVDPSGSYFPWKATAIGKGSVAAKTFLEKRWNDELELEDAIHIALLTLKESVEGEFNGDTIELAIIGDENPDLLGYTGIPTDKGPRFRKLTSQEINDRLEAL
T3 sequence (P32379 whole entry, stated change not applied, further chain): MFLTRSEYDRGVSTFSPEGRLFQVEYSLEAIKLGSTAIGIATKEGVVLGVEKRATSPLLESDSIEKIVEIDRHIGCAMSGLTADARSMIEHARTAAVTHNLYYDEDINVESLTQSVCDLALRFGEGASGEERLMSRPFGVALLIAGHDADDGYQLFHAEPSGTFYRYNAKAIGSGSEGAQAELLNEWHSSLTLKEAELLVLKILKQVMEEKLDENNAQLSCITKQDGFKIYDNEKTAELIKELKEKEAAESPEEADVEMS
T3 sequence (P40303 whole entry, stated change not applied, further chain): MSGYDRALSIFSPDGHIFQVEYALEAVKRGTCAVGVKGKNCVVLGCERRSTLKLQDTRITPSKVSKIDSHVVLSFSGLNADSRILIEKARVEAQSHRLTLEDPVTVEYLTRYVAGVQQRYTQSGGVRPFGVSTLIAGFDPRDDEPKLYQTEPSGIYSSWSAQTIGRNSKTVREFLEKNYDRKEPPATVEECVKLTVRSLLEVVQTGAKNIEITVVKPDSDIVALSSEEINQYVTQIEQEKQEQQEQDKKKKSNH
T3 sequence (P40302 whole entry, stated change not applied, further chain): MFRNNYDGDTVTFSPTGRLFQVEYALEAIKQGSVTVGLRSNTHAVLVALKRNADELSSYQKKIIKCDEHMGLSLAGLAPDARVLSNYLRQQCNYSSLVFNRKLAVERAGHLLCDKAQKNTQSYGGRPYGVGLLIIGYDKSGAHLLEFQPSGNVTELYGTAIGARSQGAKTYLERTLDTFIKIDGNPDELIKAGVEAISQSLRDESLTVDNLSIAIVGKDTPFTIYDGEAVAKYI
T3 sequence (P21243 whole entry, stated change not applied, further chain): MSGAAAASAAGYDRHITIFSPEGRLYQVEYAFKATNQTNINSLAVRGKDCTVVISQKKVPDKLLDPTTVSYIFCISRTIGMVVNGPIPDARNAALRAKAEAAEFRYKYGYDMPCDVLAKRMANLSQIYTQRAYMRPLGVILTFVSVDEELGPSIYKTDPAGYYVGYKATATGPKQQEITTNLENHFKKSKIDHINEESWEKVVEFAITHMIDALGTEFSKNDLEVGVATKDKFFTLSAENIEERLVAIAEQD

Turning to `C[n+]1ccc(-c2c3nc(c(-c4cc[n+](C)cc4)c4ccc([nH]4)c(-c4cc[n+](C)cc4)c4nc(c(-c5cc[n+](C)cc5)c5ccc2[nH]5)C=C4)C=C3)cc1` [H2T4, meso-tetrakis (4-N-methylpyridyl)-porphyrin], in the assay with h20S, the “mode of action on h20S” value was “competitive inhibitor”.

As to `C[n+]1ccc(-c2c3nc(c(-c4cc[n+](C)cc4)c4ccc([nH]4)c(-c4cc[n+](C)cc4)c4nc(c(-c5ccccc5)c5ccc2[nH]5)C=C4)C=C3)cc1` [Tris-T4, 5-(phenyl)-10,15,20-(tri N-methyl-4-pyridyl) porphyrin], the “effect on chymotryptic-like activity” value in the assay on human 20S proteasome ((Substrate) < 25 µM, Tris-T4 0-10 μM) is on record as “activator”; in assay [1] (Tris-T4 0-5 μM, no activation), “only the competitive inhibitory effect is observed”. For the same molecule, the “m, number of competitive inhibitory sites” value in the assay with human 20S proteasome (Eq 1-3) is reported as 0; in the assay with wt y20S proteasome (Eq 1-3), 1; in assay [1] (Eq 1-3) it was 1. Besides, the KmA is listed as 1.95(± 0.37) × 10^−3 M in the assay on human 20S proteasome (setting [3]), 1.17(± 0.22) × 10^−4 M with wt y20S proteasome (setting [3]) and 4.1(± 0.6) × 10^−3 M in assay [1] (setting [3]). For the same molecule, the KmB is 1.5(± 0.3) × 10^−4 M with human 20S proteasome (setting [4]), 9.04(± 1.82) × 10^−6 M in the assay with wt y20S proteasome (setting [4]) and 1.07(± 0.27) × 10^−2 M in assay [1] (Michaelis-Menten constant in state B). Also, the “LU, equilibrium constant between A and B” value in the assay on human 20S proteasome (absence of the substrate, floating parameter of the two-state model) is listed as 3.0(± 0.5) × 10^−6 (3); in the assay with wt y20S proteasome (absence of the substrate), 6.0(± 1.0) × 10^−4 (2); in assay [1] (absence of the substrate) it was 3.9(± 0.6) × 10^−2. Further, the entries for the “Tris-T4 concentration at which activation is essentially completed” value with human 20S proteasome (chymotryptic-like activity) and in the assay on wt y20S proteasome (chymotryptic-like activity) were 3 µM and 1 µM, respectively. Further, the “n, number of concerted allosteric binding sites for Tris-T4” value with human 20S proteasome (minimum value, Eq 1-3) is recorded as 3; in the assay on wt y20S proteasome (Eq 1-3) it was 2; in assay [1] (Eq 1-3), 2. The kcatA is 11.5 ± 1.3 s⁻¹ in the assay on human 20S proteasome (rate-limiting step in state A, fit of Eq 1-3, substrate ≤ 25 μM, pH 8.0, 37 °C); 0.95 ± 0.15 s⁻¹ in the assay on wt y20S proteasome (rate-limiting step in state A, fit of Eq 1-3); 49.5 ± 5.6 s⁻¹ in assay [1] (state A, same kcat imposed for both states). The kcatB in the assay with human 20S proteasome (rate-limiting step in state B (stabilized by Tris-T4), fit of Eq 1-3) is 0.32 ± 0.05 s⁻¹; with wt y20S proteasome (rate-limiting step in state B (stabilized by Tris-T4)), 0.17 ± 0.03 s⁻¹; in assay [1] (state B, same kcat imposed for both states) it was 49.5 ± 5.6 s⁻¹. For the same molecule, the “KAU, affinity constant for Tris-T4” value in the assay on human 20S proteasome (state A, absence of substrate) is reported as 2.0(± 0.3) × 10^4 M^−1; in the assay with wt y20S proteasome (state A, absence of substrate), 3.0(± 0.5) × 10^5 M^−1; in assay [1] (state A, absence of substrate), 3.0(± 0.5) × 10^5 M^−1. The “KAL, affinity constant for Tris-T4” value in the assay on human 20S proteasome (setting [5]) is given as 1.2(± 0.3) × 10^4 M^−1; in assay [1] (setting [5]), 1.2(± 0.4) × 10^5 M^−1. The “KBU, affinity constant for Tris-T4” value in the assay with human 20S proteasome (state B, absence of substrate) is reported as 8.2(± 1.2) × 10^7 M^−1; in the assay on wt y20S proteasome (state B, absence of substrate) it was 9.0(± 1.8) × 10^7 M^−1; in assay [1] (state B, absence of substrate), 9.0(± 1.8) × 10^7 M^−1. Also, the “KBL, affinity constant for Tris-T4” value in the assay with human 20S proteasome (setting [6]) was 1.35(± 0.28) × 10^8 M^−1; in the assay with wt y20S proteasome (setting [6]) it was 1.3(± 0.3) × 10^8 M^−1; in assay [1] (setting [6]) it was 1.3(± 0.3) × 10^8 M^−1. Also, the “LL, equilibrium constant between A and B” value in the assay on human 20S proteasome (substrate-bound ES complex) was 3.9(± 0.6) × 10^−5 (3); in the assay with wt y20S proteasome (substrate-bound ES complex), 7.8(± 1.5) × 10^−3 (2); in assay [1] (substrate-bound ES complex), 1.5(± 1.0) × 10^−2. The “free energy contribution of each Tris-T4 binding step (RTln(KBL/KAL))” value in the assay with human 20S proteasome (substrate-bound state) was 5.71 kcal/mol. Also, in the assay on human 20S proteasome (substrate-free conformation), the “free energy contribution of each Tris-T4 binding step (RTln(KBU/KAU))” value stood at 5.11 kcal/mol. Also, the “free energy for the A → B transition in favor of the B functional state (RTlnLUγ^3)” value in the assay with human 20S proteasome (substrate-free porphyrin triple-bound enzyme) was 7.5 kcal/mol. For the same molecule, in the assay with wt y20S proteasome (above 1 μM Tris-T4, overwhelms the activation), the “effect on chymotryptic-like activity at higher Tris-T4 concentrations” value is listed as “competitive inhibitory effect”. In addition, the “KBI, affinity constant for Tris-T4 to the inhibitory competitive site” value (in the assay with wt y20S proteasome (state B); in assay [1] (state B)) was 2.5(± 0.4) × 10^6 M^−1 throughout. Besides, the IC50 in assay [2] was 920 ± 60 nM. Further, in the assay with h20S proteasome, the “STD and WL-NMR spectra, interaction” value is on record as “positive signals”.

Regarding `C[n+]1ccc(-c2ccc(-c3c4nc(c(-c5ccc(-c6cc[n+](C)cc6)cc5)c5ccc([nH]5)c(-c5ccc(-c6cc[n+](C)cc6)cc5)c5nc(c(-c6ccc(-c7cc[n+](C)cc7)cc6)c6ccc3[nH]6)C=C5)C=C4)cc2)cc1` [pTMPyPP4, meso-tetrakis (4-N-methylphenyl-pyridyl)-porphyrin], the “mode of action on h20S” value in the assay with h20S is reported as “allosteric inhibitor”.

The record behind these values is publication PMC7582714, “Cooperative Binding of the Cationic Porphyrin Tris-T4 Enhances Catalytic Activity of 20S Proteasome Unveiling a Complex Distribution of Functional States” (International Journal of Molecular Sciences, 2020).
